Assay results reported in ChEMBL document CHEMBL3399937, “(18)F-AmBF3-MJ9: a novel radiofluorinated bombesin derivative for prostate cancer imaging” (Bioorg Med Chem, 2015).

What was measured:
[1] = system: Mus musculus; experiment: Biodistribution in seminal gland of NSG mouse xenografted with human PC-3 tumor at 0.37 to 0.74 MBq, iv after 1 hr by gamma counting analysis in presence of BAY86-7548; assay type: ADME, organism-based; conditions: in vivo
[2] = system: Pancreas; experiment: Biodistribution in pancreas of NSG mouse xenografted with human PC-3 tumor at 0.37 to 0.74 MBq, iv after 0.5 hrs by gamma counting analysis; assay type: ADME, organism-based; conditions: in vivo
[3] = system: Plasma; experiment: Metabolic stability in mouse plasma after 0.5 to 2 hrs by HPLC analysis; assay type: ADME, cell-free
[4] = system: Heart; experiment: Biodistribution in heart of NSG mouse xenografted with human PC-3 tumor at 0.37 to 0.74 MBq, iv after 2 hrs by gamma counting analysis; assay type: ADME, organism-based; conditions: in vivo
[5] = system: Blood; experiment: Biodistribution in blood of NSG mouse xenografted with human PC-3 tumor at 0.37 to 0.74 MBq, iv after 1 hr by gamma counting analysis in presence of BAY86-7548; assay type: ADME, organism-based; conditions: in vivo
[6] = system: Heart; experiment: Biodistribution in heart of NSG mouse xenografted with human PC-3 tumor at 0.37 to 0.74 MBq, iv after 0.5 hrs by gamma counting analysis; assay type: ADME, organism-based; conditions: in vivo
[7] = system: Mus musculus; experiment: Biodistribution in adrenal gland of NSG mouse xenografted with human PC-3 tumor at 0.37 to 0.74 MBq, iv after 1 hr by gamma counting analysis in presence of BAY86-7548; assay type: ADME, organism-based; conditions: in vivo
[8] = system: Tumour; experiment: Biodistribution in tumor of NSG mouse xenografted with human PC-3 tumor at 0.37 to 0.74 MBq, iv after 1 hr by gamma counting analysis in presence of BAY86-7548; assay type: ADME, organism-based, Neoplasm; conditions: in vivo
[9] = system: Liver; experiment: Biodistribution in liver of NSG mouse xenografted with human PC-3 tumor at 0.37 to 0.74 MBq, iv after 0.5 hrs by gamma counting analysis; assay type: ADME, organism-based; conditions: in vivo
[10] = system: Liver; experiment: Biodistribution in liver of NSG mouse xenografted with human PC-3 tumor at 0.37 to 0.74 MBq, iv after 2 hrs by gamma counting analysis; assay type: ADME, organism-based; conditions: in vivo
[11] = system: Lung; experiment: Biodistribution in lung of NSG mouse xenografted with human PC-3 tumor at 0.37 to 0.74 MBq, iv after 0.5 hrs by gamma counting analysis; assay type: ADME, organism-based; conditions: in vivo
[12] = system: Liver; experiment: Biodistribution in liver of NSG mouse xenografted with human PC-3 tumor at 0.37 to 0.74 MBq, iv after 1 hr by gamma counting analysis; assay type: ADME, organism-based; conditions: in vivo
[13] = system: Blood; experiment: Biodistribution in blood of NSG mouse xenografted with human PC-3 tumor at 0.37 to 0.74 MBq, iv after 1 hr by gamma counting analysis; assay type: ADME, organism-based; conditions: in vivo
[14] = system: Mus musculus; experiment: Biodistribution in adrenal gland of NSG mouse xenografted with human PC-3 tumor at 0.37 to 0.74 MBq, iv after 2 hrs by gamma counting analysis; assay type: ADME, organism-based; conditions: in vivo
[15] = system: Lung; experiment: Biodistribution in lung of NSG mouse xenografted with human PC-3 tumor at 0.37 to 0.74 MBq, iv after 1 hr by gamma counting analysis in presence of BAY86-7548; assay type: ADME, organism-based; conditions: in vivo
[16] = system: Mus musculus; experiment: Biodistribution in seminal gland of NSG mouse xenografted with human PC-3 tumor at 0.37 to 0.74 MBq, iv after 2 hrs by gamma counting analysis; assay type: ADME, organism-based; conditions: in vivo
[17] = system: Mus musculus; experiment: Biodistribution in testis of NSG mouse xenografted with human PC-3 tumor at 0.37 to 0.74 MBq, iv after 0.5 hrs by gamma counting analysis; assay type: ADME, organism-based; conditions: in vivo
[18] = system: Intestine; experiment: Biodistribution in intestine of NSG mouse xenografted with human PC-3 tumor at 0.37 to 0.74 MBq, iv after 2 hrs by gamma counting analysis; assay type: ADME, organism-based; conditions: in vivo
[19] = system: Brain; experiment: Biodistribution in brain of NSG mouse xenografted with human PC-3 tumor at 0.37 to 0.74 MBq, iv after 0.5 hrs by gamma counting analysis; assay type: ADME, organism-based; conditions: in vivo
[20] = system: Muscle tissue; experiment: Biodistribution in muscle of NSG mouse xenografted with human PC-3 tumor at 0.37 to 0.74 MBq, iv after 0.5 hrs by gamma counting analysis; assay type: ADME, organism-based; conditions: in vivo
[21] = system: Muscle tissue; experiment: Biodistribution in muscle of NSG mouse xenografted with human PC-3 tumor at 0.37 to 0.74 MBq, iv after 1 hr by gamma counting analysis in presence of BAY86-7548; assay type: ADME, organism-based; conditions: in vivo
[22] = system: Tumour; experiment: Biodistribution in tumor of NSG mouse xenografted with human PC-3 tumor at 0.37 to 0.74 MBq, iv after 2 hrs by gamma counting analysis; assay type: ADME, organism-based, Neoplasm; conditions: in vivo
[23] = system: Lung; experiment: Biodistribution in lung of NSG mouse xenografted with human PC-3 tumor at 0.37 to 0.74 MBq, iv after 2 hrs by gamma counting analysis; assay type: ADME, organism-based; conditions: in vivo
[24] = system: Mus musculus; experiment: Biodistribution in adrenal gland of NSG mouse xenografted with human PC-3 tumor at 0.37 to 0.74 MBq, iv after 0.5 hrs by gamma counting analysis; assay type: ADME, organism-based; conditions: in vivo
[25] = system: Spleen; experiment: Biodistribution in spleen of NSG mouse xenografted with human PC-3 tumor at 0.37 to 0.74 MBq, iv after 1 hr by gamma counting analysis in presence of BAY86-7548; assay type: ADME, organism-based; conditions: in vivo
[26] = system: Pancreas; experiment: Biodistribution in pancreas of NSG mouse xenografted with human PC-3 tumor at 0.37 to 0.74 MBq, iv after 2 hrs by gamma counting analysis; assay type: ADME, organism-based; conditions: in vivo
[27] = system: Mus musculus; experiment: Biodistribution in testis of NSG mouse xenografted with human PC-3 tumor at 0.37 to 0.74 MBq, iv after 2 hrs by gamma counting analysis; assay type: ADME, organism-based; conditions: in vivo
[28] = system: Kidney; experiment: Biodistribution in kidney of NSG mouse xenografted with human PC-3 tumor at 0.37 to 0.74 MBq, iv after 1 hr by gamma counting analysis; assay type: ADME, organism-based; conditions: in vivo

SMILES: CC(C)C[C@H](NC(=O)C[C@H](O)[C@H](CC(C)C)NC(=O)[C@H](Cc1cnc[nH]1)NC(=O)CNC(=O)[C@@H](NC(=O)[C@H](C)NC(=O)[C@H](Cc1c[nH]c2ccccc12)NC(=O)[C@H](CCC(N)=O)NC(=O)[C@@H](Cc1ccccc1)NC(=O)CN1CCC(NC(=O)Cn2cc(C[N+](C)(C)C[B-](F)(F)[17F])nn2)CC1)C(C)C)C(N)=O
- Drug uptake [1]: 0.12 % ID/g
- Drug uptake [2]: 8.04 % ID/g
- Stability [3]: Stable
- Drug uptake [4]: 0.06 % ID/g
- Drug uptake [5]: 0.48 % ID/g
- Drug uptake [6]: 0.54 % ID/g
- Drug uptake [7]: 0.21 % ID/g
- Drug uptake [8]: 0.54 % ID/g
- Drug uptake [9]: 2.63 % ID/g
- Drug uptake [10]: 0.33 % ID/g
- Drug uptake [11]: 1.96 % ID/g
- Drug uptake [12]: 0.78 % ID/g
- Drug uptake [13]: 0.57 % ID/g
- Drug uptake [14]: 0.29 % ID/g
- Drug uptake [15]: 0.71 % ID/g
- Drug uptake [16]: 0.15 % ID/g
- Drug uptake [17]: 0.42 % ID/g
- Drug uptake [18]: 8.67 % ID/g
- Drug uptake [19]: 0.07 % ID/g
- Drug uptake [20]: 0.38 % ID/g
- Drug uptake [21]: 0.14 % ID/g
- Drug uptake [22]: 2.2 % ID/g
- Drug uptake [23]: 0.4 % ID/g
- Drug uptake [24]: 1.16 % ID/g
- Drug uptake [25]: 0.32 % ID/g
- Drug uptake [26]: 4.75 % ID/g
- Drug uptake [27]: 0.13 % ID/g
- Drug uptake [28]: 2.43 % ID/g
